Values quoted from earlier work, collected in patent publication US20100254946A1, “MAINTENANCE OF HAIR GROWTH AND TREATMENT OF HAIR-LOSS” (LIFE & BRAIN GMBH, priority 2007, published 2010).
“Also recorded” adds a separate entry of the source.

Columns and labels:
P2Y5 receptor = biological target: T1, P2Y5 receptor (Homo sapiens, UniProt P43657)
T1 sequence (P43657 1-344): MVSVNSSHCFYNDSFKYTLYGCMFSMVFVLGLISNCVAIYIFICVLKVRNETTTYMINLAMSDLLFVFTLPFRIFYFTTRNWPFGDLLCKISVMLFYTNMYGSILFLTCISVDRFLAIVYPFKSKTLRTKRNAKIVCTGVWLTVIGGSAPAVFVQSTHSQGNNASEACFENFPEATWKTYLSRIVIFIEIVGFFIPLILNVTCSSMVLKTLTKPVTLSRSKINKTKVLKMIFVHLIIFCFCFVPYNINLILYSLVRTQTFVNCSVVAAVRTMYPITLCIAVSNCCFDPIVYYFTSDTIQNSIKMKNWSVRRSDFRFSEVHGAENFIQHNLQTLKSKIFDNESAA

[1] = biological target: T2, P2Y5 mutant p.Lys125AsnfsX37 (Homo sapiens, UniProt P43657); details: P2Y5 mutant p.Lys125AsnfsX37, LPA used as ligand
T2 construct: premature termination of translation of the P2Y5 receptor protein (p.Lys125AsnfsX37; expressed in transfected cells; vector pcDNA5/FRT/V5-His), transiently transfected with pCRE-luc
T2 sequence (P43657 with tags, fused parts or gaps): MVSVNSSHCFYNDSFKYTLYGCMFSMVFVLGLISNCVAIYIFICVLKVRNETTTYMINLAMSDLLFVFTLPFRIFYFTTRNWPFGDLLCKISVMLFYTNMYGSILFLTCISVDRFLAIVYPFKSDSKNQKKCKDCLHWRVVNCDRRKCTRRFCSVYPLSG

hair growth = details: mouse model, previously shown

Structure (SMILES): CCCCCCCC/C=C\CCCCCCCC(=O)OC[C@@H](O)COP(=O)(O)O [LPA, oleoyl-L-alpha-lysophosphatidic acid]
- ligand for the P2Y5 receptor (P2Y5 receptor): is a ligand of the P2Y5 receptor; also recorded: is a ligand for the P2Y5 receptor
- activation of a CRE luciferase reporter gene [1]: not capable of activating a CRE luciferase reporter gene
- stimulation of hair growth (hair growth): stimulate hair growth in vivo
